Article PMC7823827, “β-Galactosidases from a Sequence-Based Metagenome: Cloning, Expression, Purification and Characterization” (Microorganisms, 2020)

Tested on: T1, βgal5
T1 construct: gene AUR.contig-100_1620_7; GH42; N-terminal 6-His with TEV site (pET-TEV), E. coli BL21(DE3), Ni-NTA
Assay: nitrophenol release, absorbance […] nm
Type: biochemical
Details: buffer Z (phosphate, KCl, MgSO4), 30 °C; 2.5-20 mM substrate; read-out: Km (mM) / ONPG

Km: 14.5 mM
SMILES: O=[N+]([O-])c1ccccc1O[C@@H]1O[C@H](CO)[C@H](O)[C@H](O)[C@H]1O [2-nitrophenyl-β-D-galactopyranoside]
